Test results: patent US20260306502A1, “MITOCHONDRIAL UNCOUPLERS FOR TREATMENT OF METABOLIC DISEASES AND CANCER” (Mito Biopharma, LLC, priority 2022, published 2026)
Where two headings read alike, the source gives them in different places.

Test system: C2C12 cells
Test: Mitochondrial uncoupling activity by oxygen consumption rate (OCR) assay, Seahorse, in presence of oligomycin
Assay type: cell-based, mouse
Settings: for minimal effective concentration: Mus musculus, C2C12
Experimental: By definition, mitochondrial uncoupling is the decoupling of mitochondrial electron transport chain activity (mitochondrial oxidation) from ATP synthesis by mitochondrial ATP synthase. Technically, mitochondrial uncoupling activity is defined by the ability of a chemical compound to induce oxygen consumption of cells or isolated mitochondria in the presence of a mitochondrial ATP synthase inhibitor such as oligomycin. Accordingly, mitochondrial uncoupling activity was determined by oxygen consumption rate assay with a Seahorse XF96 or a Seahorse XF24 instrument following the vendor's instruction, using mouse myoblast C2C12 cells grown in a medium containing 10% fetal bovine serum. OCR was measured stepwise under the following conditions: first under normal growth conditions; then. OCR was measured after oligomycin was added to reach a final concentration of 2.5 μM); then OCR was measured after the compound was further added at varying concentrations. Finally, rotenone and antimycin A were added to confirm that the measurement was mitochondrial oxygen consumption (rotenone and […] mitochondrial electron transport chain inhibitors).
COCR-min the minimal concentration required for each compound to induce OCR in the presence of oligomycin, of disclosed compounds, was also determined by varying the final concentration of the compound added to the Seahorse OCR analysis experiment as described above (FIG. 2, varying testing compound concentration). Table 8 summarizes the mitochondrial uncoupling activity of disclosed compounds, as represented by COCR-min.

[1] = in the presence of oligomycin 2.5 μM, read-out: COCR-min: minimal concentration increasing OCR in the presence of oligomycin

Compound: COCOCc1cc(Cl)cc(C(=O)Nc2nc3ccc(C(F)(F)F)cc3s2)c1O [Compound 1, 5-chloro-2-hydroxy-3-((methoxymethoxy)methyl)-N-(6-(trifluoromethyl)benzo[d]thiazol-2-yl)benzamide]
- minimal effective concentration [1]: < 5 µM

Compound: COCCOCc1cc(Cl)cc(C(=O)Nc2nc3ccc(OC(F)(F)F)cc3s2)c1O [Compound 5, 5-chloro-2-hydroxy-3-((2-methoxyethoxy)methyl)-N-(6-(trifluoromethoxy)benzo[d]thiazol-2-yl)benzamide]
- minimal effective concentration [1]: 5 to 10 µM

Compound: COCCOCc1cc(Cl)cc(C(=O)Nc2cnc(C(F)(F)F)cn2)c1O [Compound 6, 5-chloro-2-hydroxy-3-((2-methoxyethoxy)methyl)-N-(5-(trifluoromethyl)pyrazin-2-yl)benzamide]
- minimal effective concentration [1]: 5 to 10 µM

Compound: COCCOCc1cc(Cl)cc(C(=O)Nc2nc3ccc(F)cc3s2)c1O [Compound 8, 5-chloro-N-(6-fluorobenzo[d]thiazol-2-yl)-2-hydroxy-3-((2-methoxyethoxy)methyl)benzamide]
- minimal effective concentration [1]: < 5 µM

Compound: CN(C)CCc1cc(Cl)cc(C(=O)Nc2ccc(C(F)(F)F)cc2Cl)c1O [Compound 18, 5-chloro-N-(2-chloro-4-(trifluoromethyl)phenyl)-3-(2-(dimethylamino)ethyl)-2-hydroxybenzamide]
- minimal effective concentration [1]: < 5 µM

Compound: CC(=O)N1CCN(Cc2cc(Cl)cc(C(=O)Nc3nc4ccc(C(F)(F)F)cc4s3)c2O)CC1 [Compound 19, 3-((4-acetylpiperazin-1-yl)methyl)-5-chloro-2-hydroxy-N-(6-(trifluoromethyl)benzo[d]thiazol-2-yl)benzamide]
- minimal effective concentration [1]: 5 to 10 µM

Compound: COCCOCc1cc(Cl)cc(C(=O)Nc2ccc(C(F)(F)F)nc2)c1O [Compound 20, 5-chloro-2-hydroxy-3-((2-methoxyethoxy)methyl)-N-(6-(trifluoromethyl)pyridin-3-yl)benzamide]
- minimal effective concentration [1]: 5 to 10 µM

Compound: COCCOCc1cc(Cl)cc(C(=O)Nc2cnc(C(F)(F)F)nc2)c1O [Compound 21, 5-chloro-2-hydroxy-3-((2-methoxyethoxy)methyl)-N-(2-(trifluoromethyl)pyrimidin-5-yl)benzamide]
- minimal effective concentration [1]: > 10 µM

Compound: COCCNCc1cc(Cl)cc(C(=O)Nc2nc3ccc(C(F)(F)F)cc3s2)c1O [Compound 22, 5-chloro-2-hydroxy-3-(((2-methoxyethyl)amino)methyl)-N-(6-(trifluoromethyl)benzo[d]thiazol-2-yl)benzamide]
- minimal effective concentration [1]: < 5 µM

Compound: COCCOCCN(C)Cc1cc(Cl)cc(C(=O)Nc2nc3ccc(C(F)(F)F)cc3s2)c1O [Compound 24, 5-chloro-2-hydroxy-3-(((2-(2-methoxyethoxy)ethyl)(methyl)amino)methyl)-N-(6-(trifluoromethyl)benzo[d]thiazol-2-yl)benzamide]
- minimal effective concentration [1]: < 5 µM

Compound: CN1CCN(Cc2cc(Cl)cc(C(=O)Nc3nc4ccc(C(F)(F)F)cc4s3)c2O)CC1 [Compound 28, 5-chloro-2-hydroxy-3-((4-methylpiperazin-1-yl)methyl)-N-(6-(trifluoromethyl)benzo[d]thiazol-2-yl)benzamide]
- minimal effective concentration [1]: < 5 µM

Compound: O=C(Nc1nc2ccc(C(F)(F)F)cc2s1)c1cc(Cl)cc(CN2CCC(O)C2)c1O (centres unmarked) [Compound 30, 5-chloro-2-hydroxy-3-((3-hydroxypyrrolidin-1-yl)methyl)-N-(6-(trifluoromethyl)benzo[d]thiazol-2-yl)benzamide]
- minimal effective concentration [1]: > 10 µM

Compound: CC(=O)NC1CCN(Cc2cc(Cl)cc(C(=O)Nc3nc4ccc(C(F)(F)F)cc4s3)c2O)C1 (centres unmarked) [Compound 33, 3-((3-acetamidopyrrolidin-1-yl)methyl)-5-chloro-2-hydroxy-N-(6-(trifluoromethyl)benzo[d]thiazol-2-yl)benzamide]
- minimal effective concentration [1]: > 10 µM

Compound: CO/N=C/c1cc(Cl)cc(C(=O)Nc2nc3ccc(C(F)(F)F)cc3s2)c1O [Compound 39, (E)-5-chloro-2-hydroxy-3-((methoxyimino)methyl)-N-(6-(trifluoromethyl)benzo[d]thiazol-2-yl)benzamide]
- minimal effective concentration [1]: > 10 µM

Compound: COCCOCc1cc(Cl)cc(C(=O)Nc2nc3ccc(C(F)F)cc3s2)c1O [Compound 42, 5-chloro-N-(6-(difluoromethyl)benzo[d]thiazol-2-yl)-2-hydroxy-3-((2-methoxyethoxy)methyl)benzamide]
- minimal effective concentration [1]: 5 to 10 µM

Compound: COCCOCc1cc(Cl)cc(C(=O)Nc2ccc(C(F)(F)F)cn2)c1O [Compound 45, 5-chloro-2-hydroxy-3-((2-methoxyethoxy)methyl)-N-(5-(trifluoromethyl)pyridin-2-yl)benzamide]
- minimal effective concentration [1]: 5 to 10 µM

Compound: COCCOCc1cc(I)cc(C(=O)Nc2nc3ccc(C(F)(F)F)cc3s2)c1O [Compound 46, 2-hydroxy-5-iodo-3-((2-methoxyethoxy)methyl)-N-(6-(trifluoromethyl)benzo[d]thiazol-2-yl)benzamide]
- minimal effective concentration [1]: < 5 µM

Compound: COCCOCc1cc(Cl)cc(C(=O)Nc2ccc(C(F)(F)F)nc2Cl)c1O [Compound 47, 5-chloro-N-(2-chloro-6-(trifluoromethyl)pyridin-3-yl)-2-hydroxy-3-((2-methoxyethoxy)methyl)benzamide]
- minimal effective concentration [1]: < 5 µM

Compound: O=C(Nc1nc2ccc(C(F)(F)F)cc2s1)c1cc(Cl)cc(CO)c1O [Compound 49 in U.S. Pat. No. 10,227,315, reference compound]
- minimal effective concentration (minimal concentration leading to OCR increase, read-out: Activity (Cmin-OCR)): 25 µM
- mitochondrial uncoupling activity (in words, compared to similar compounds of the present invention): low

Compound: O=C(Nc1ncc(C(F)(F)F)s1)c1cc(Cl)cc(CN2CCOCC2)c1O [Compound 51, 5-chloro-2-hydroxy-3-(morpholinomethyl)-N-(5-(trifluoromethyl)thiazol-2-yl)benzamide]
- minimal effective concentration [1]: < 5 µM

Compound: O=C(Nc1ccc(C(F)(F)F)nc1)c1cc(Cl)cc(CN2CCOCC2)c1O [Compound 53, 5-chloro-2-hydroxy-3-(morpholinomethyl)-N-(6-(trifluoromethyl)pyridin-3-yl)benzamide]
- minimal effective concentration [1]: < 5 µM

Compound: N#CC1CCN(Cc2cc(Cl)cc(C(=O)Nc3ccc(C(F)(F)F)nc3)c2O)C1 (centres unmarked) [Compound 55, 5-chloro-3-((3-cyanopyrrolidin-1-yl)methyl)-2-hydroxy-N-(6-(trifluoromethyl)pyridin-3-yl)benzamide]
- minimal effective concentration [1]: < 5 µM

Compound: O=C(Nc1nc2ccc(C(F)(F)F)cc2s1)c1cc(Cl)cc(CN2CCCC2C(F)(F)F)c1O (centres unmarked) [Compound 56, 5-chloro-2-hydroxy-N-(6-(trifluoromethyl)benzo[d]thiazol-2-yl)-3-((2-(trifluoromethyl)pyrrolidin-1-yl)methyl)benzamide]
- minimal effective concentration [1]: < 5 µM

Compound: COc1cc(C(F)(F)F)cc2sc(NC(=O)c3cc(Cl)cc(C)c3O)nc12 [Compound 67, 5-chloro-2-hydroxy-N-(4-methoxy-6-(trifluoromethyl)benzo[d]thiazol-2-yl)-3-methylbenzamide]
- minimal effective concentration [1]: < 5 µM

Compound: COCCOCc1cc(C(F)(F)F)cc2sc(NC(=O)c3cc(Cl)cc(CN(CCOC)CCOC)c3O)nc12 [Compound 70, 3-((bis(2-methoxyethyl)amino)methyl)-5-chloro-2-hydroxy-N-(4-((2-methoxyethoxy)methyl)-6-(trifluoromethyl)benzo[d]thiazol-2-yl)benzamide]
- minimal effective concentration [1]: < 5 µM

Compound: Cc1cc(Cl)cc(C(=O)Nc2nc3c(COCCN4CCN(C)CC4)cc(C(F)(F)F)cc3s2)c1O [Compound 75, 5-chloro-2-hydroxy-3-methyl-N-(4-((2-(4-methylpiperazin-1-yl)ethoxy)methyl)-6-(trifluoromethyl)benzo[d]thiazol-2-yl)benzamide]
- minimal effective concentration [1]: < 5 µM

Compound: C[C@@H]1CN(Cc2cc(Cl)cc(C(=O)Nc3nc4c(COCCN5CCN(C)CC5)cc(C(F)(F)F)cc4s3)c2O)C[C@H](C)O1 [Compound 76, 5-chloro-3-((cis-2,6-dimethylmorpholino)methyl)-2-hydroxy-N-(4-((2-(4-methylpiperazin-1-yl)ethoxy)methyl)-6-(trifluoromethyl)benzo[d]thiazol-2-yl)benzamide]
- minimal effective concentration [1]: < 5 µM

Compound: Cc1cc(Cl)cc(C(=O)Nc2nc3c(COCc4ccc(Cl)cc4)cc(C(F)(F)F)cc3s2)c1O [Compound 82, 5-chloro-N-(4-(((4-chlorobenzyl)oxy)methyl)-6-(trifluoromethyl)benzo[d]thiazol-2-yl)-2-hydroxy-3-methylbenzamide]
- minimal effective concentration [1]: < 5 µM

Compound: Cc1cc(Cl)cc(C(=O)Nc2nc3c(COCc4ccccc4)cc(C(F)(F)F)cc3s2)c1O [Compound 84, N-(4-((benzyloxy)methyl)-6-(trifluoromethyl)benzo[d]thiazol-2-yl)-5-chloro-2-hydroxy-3-methylbenzamide]
- minimal effective concentration [1]: < 5 µM

Compound: Cc1cc(Cl)cc(C(=O)Nc2nc3c(COCCO)cc(C(F)(F)F)cc3s2)c1O [Compound 88, 5-chloro-2-hydroxy-N-(4-((2-hydroxyethoxy)methyl)-6-(trifluoromethyl)benzo[d]thiazol-2-yl)-3-methylbenzamide]
- minimal effective concentration [1]: 5 to 10 µM

Compound: COc1ccc(COCc2cc(C(F)(F)F)cc3sc(NC(=O)c4cc(Cl)cc(C)c4O)nc23)cc1 [Compound 89, 5-chloro-2-hydroxy-N-(4-(((4-methoxybenzyl)oxy)methyl)-6-(trifluoromethyl)benzo[d]thiazol-2-yl)-3-methylbenzamide]
- minimal effective concentration [1]: < 5 µM
